# Experimental data published in paper PMC8924211 (Nature Communications, 2022).
# Numbering of substitutions follows the chain as printed.
# Legend:
# Experiment in all cases: Calcium assay, HEK293/Gα16 cells, GAL2R mutants
# Type in all cases: cell-based
# GAL2R mutants [1] = target: T1, GAL2R mutants (Homo sapiens, UniProt O43603, L172A); conditions: GAL2R L172ECL2A
# T1 construct: expressed in transfected cells; host or cells: HEK293
# T1 sequence (O43603 1-387 L172A): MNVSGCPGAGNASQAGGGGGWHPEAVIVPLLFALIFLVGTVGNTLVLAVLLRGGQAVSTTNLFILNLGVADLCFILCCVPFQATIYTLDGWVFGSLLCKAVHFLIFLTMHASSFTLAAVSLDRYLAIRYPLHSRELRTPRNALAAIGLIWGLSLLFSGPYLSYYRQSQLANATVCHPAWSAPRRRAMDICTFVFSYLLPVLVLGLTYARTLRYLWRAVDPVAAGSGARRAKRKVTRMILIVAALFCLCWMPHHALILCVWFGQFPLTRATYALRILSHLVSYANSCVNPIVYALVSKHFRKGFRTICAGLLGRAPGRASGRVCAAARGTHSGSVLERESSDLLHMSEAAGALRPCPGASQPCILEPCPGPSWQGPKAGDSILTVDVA
# GAL2R mutants [2] = target: T2, GAL2R mutants (Homo sapiens, UniProt O43603, Q82A); conditions: GAL2R Q822.61A
# T2 construct: expressed in transfected cells; host or cells: HEK293
# T2 sequence (O43603 1-387 Q82A): T1 sequence (O43603 1-387 L172A) with Q82A, A172L
# GAL2R mutants [3] = target: T3, GAL2R mutants (Homo sapiens, UniProt O43603, R184A); conditions: GAL2R R1845.35A
# T3 construct: expressed in transfected cells; host or cells: HEK293
# T3 sequence (O43603 1-387 R184A): T1 sequence (O43603 1-387 L172A) with A172L, R184A
# GAL2R mutants [4] = target: T4, GAL2R mutants (Homo sapiens, UniProt O43603, A170S); conditions: GAL2R A170ECL2S
# T4 construct: expressed in transfected cells; host or cells: HEK293
# T4 sequence (O43603 1-387 A170S): T1 sequence (O43603 1-387 L172A) with A170S, A172L
# GAL2R mutants [5] = target: T5, GAL2R mutants (Homo sapiens, UniProt O43603, I85A); conditions: GAL2R I852.64A
# T5 construct: expressed in transfected cells; host or cells: HEK293
# T5 sequence (O43603 1-387 I85A): T1 sequence (O43603 1-387 L172A) with I85A, A172L
# [6] = response of 100 μM spexin compared to WT, mean ± S.E.M.
# [7] = response of 100 μM spexin compared to WT
substance,measurement,setting,value
spexin,Emax,GAL2R mutants [1]; [6],33.56±1.2%
same,EC50,"GAL2R mutants [1]; spexin, replicate 1",3125 nM
same,Emax,"GAL2R mutants [1]; spexin, replicate 1",31.8616%
same,EC50,"GAL2R mutants [1]; spexin, replicate 2",10790 nM
same,Emax,"GAL2R mutants [1]; spexin, replicate 2",33.0538%
same,EC50,"GAL2R mutants [1]; spexin, replicate 3",12080 nM
same,Emax,"GAL2R mutants [1]; spexin, replicate 3",35.752%
same,Emax,GAL2R mutants [2]; [7],"NR (NR, no response, refers to response < 10% compared to WT receptor (spexin at 100 μM))"
same,Emax,"GAL2R mutants [2]; spexin, replicate 1",no response
same,Emax,"GAL2R mutants [2]; spexin, replicate 2",no response
same,Emax,"GAL2R mutants [2]; spexin, replicate 3",no response
same,Emax,GAL2R mutants [3]; [6],32.36±1.6%
same,EC50,"GAL2R mutants [3]; spexin, replicate 1",371.2 nM
same,Emax,"GAL2R mutants [3]; spexin, replicate 1",29.7886%
same,EC50,"GAL2R mutants [3]; spexin, replicate 2",973.1 nM
same,Emax,"GAL2R mutants [3]; spexin, replicate 2",32.1089%
same,EC50,"GAL2R mutants [3]; spexin, replicate 3",10580 nM
same,Emax,"GAL2R mutants [3]; spexin, replicate 3",35.1728%
same,Emax,GAL2R mutants [4]; [6],17.66±5.3%
same,EC50,"GAL2R mutants [4]; spexin, replicate 1",95.4 nM
same,Emax,"GAL2R mutants [4]; spexin, replicate 1",11.3367%
same,EC50,"GAL2R mutants [4]; spexin, replicate 2",151.4 nM
same,Emax,"GAL2R mutants [4]; spexin, replicate 2",13.424%
same,EC50,"GAL2R mutants [4]; spexin, replicate 3",150.6 nM
same,Emax,"GAL2R mutants [4]; spexin, replicate 3",28.2269%
same,Emax,GAL2R mutants [5]; [7],"NR (NR, no response, refers to response < 10% compared to WT receptor (spexin at 100 μM))"
same,Emax,"GAL2R mutants [5]; spexin, replicate 1",no response
same,Emax,"GAL2R mutants [5]; spexin, replicate 2",no response
same,Emax,"GAL2R mutants [5]; spexin, replicate 3",no response
